Assay results as given in patent publication US20050171004A1, “Use of cardiotrophin-1 to promote wound healing and counteract overt fibrosis” (priority 2003, published 2005).

What was measured:
[1] = tested on: other kinases; settings: cited from earlier work
[2] = tested on: cardiac fibroblasts; assay: Protein synthesis assay (3H-leucine incorporation); format: cell-based, rat; settings: co-incubation with inhibitor, CT-1 10 ng/mL
Method: Protein synthesis was determined using the methods of Wolf and Neilson (Wolf and Neilson, 1990, Am J Physiol 259: 768-777). 2.5×10^4 cells (counted with a hemacytometer) were loaded into each well of 24-well plates, allowed to attach overnight, then rendered quiescent in serum free DMEM/F12 for 24 hours. Cells were stimulated with CT-1 for an additional 24 hours in the presence of 2 μCi/mL ^3H-leucine with or without inhibitors of signaling pathways. The culture media was aspirated, cells rinsed twice with phosphate buffered saline and proteins precipitated by two incubations with 10% TCA at room temperature. The precipitated protein was solubilized in 300 μl lysis buffer containing 0.5 M NaOH and 1% Triton X-100 at room temperature for 15 minutes. The lysate was transferred to scintillation vials, and beta emission was determined with 3 ml Ecolume scintillation fluid (ICN Pharmaceuticals) and a scintillation counter (LS6500, Beckman Coulter, Fullerton, Calif.).

[3] = tested on: cardiac fibroblasts; assay: Western analysis of phosphorylation of translational regulatory proteins; format: cell-based, rat; settings: co-incubation with inhibitor
Method: (§1) Protein concentrations of tissue and cell lysates were determined by the BCA method (Smith et al., 1985, Anal Biochem 150: 76-85). Proteins were separated by 8-12% SDS-PAGE and transferred to PVDF membrane (Roche, Indianapolis, Ind.) for 1 hour at 300 mA for small proteins or for 2 hours at 500 mA for proteins greater than 100 kDa. Membranes were blocked with 5% non-fat skim milk in tris-buffered saline containing 0.2% Tween 20 (TBST). Proteins were visualized with ECL Plus (Amersham) after probing with primary and secondary antibodies. Band intensity was quantified using a CCD camera imaging densitometer (GS670, Bio-Rad Laboratories (Canada) Ltd. Mississauga, Ontario).
To determine the effect of CT-1 on protein synthesis in cardiac fibroblasts we measured incorporation of ^3H-labeled leucine. […] Since the activity of translational regulatory proteins is modified by phosphorylation, we used phospho-specific antibodies to determine if CT-1 directly influenced the activity of these regulatory proteins.
We then determined the effect of pharmacologic inhibitors on the activation of this signaling cascade.

[4] = tested on: cardiac fibroblasts; assay: Western analysis of myosin light chain phosphorylation; format: cell-based, rat; settings: co-incubation with inhibitor, 30 minutes
Method: as §1
The infarct zone is repopulated by interstitial fibroblasts that infiltrate the scar after MI. […] Similar results were obtained when using the Costar Transwell® system (data not shown). To determine how the chemotactic response is transduced, we used specific inhibitors of intracellular signaling pathways. […] This effect could be blunted by co-incubation with AG490 (FIG. 22). […] Since activation of myosin motors is required for effective cell migration, and CT-1 induced migration could be inhibited by co-incubation with a myosin light chain kinase inhibitor, we sought to determine the effect of CT-1 on the phosphorylation status of myosin light chain. Myosin light chain regulates the ATPase activity of myosin heavy chain, and thus overall contractile activity. […] Myosin light chain phosphorylation could be prevented by co-incubation with ML-7 or W7 but not AG490 or PP2 (FIG. 25b).

[5] = tested on: cardiac fibroblasts; assay: Wounded monolayer model, cortactin immunostaining; format: cell-based, rat; settings: co-incubation with inhibitor
Method: Cardiac fibroblasts were seeded onto coverslips in 6-well dishes and allowed to proliferate. Once the cells were near confluency, they were serum deprived for 24 hours. A scrape was made down the middle of the coverslip with the blunt end of a 1 ml syringe and the media was changed again. Cells were further incubated in the presence or absence of CT-1 and inhibitors at specified concentrations for specified times. The cells were then subjected to immunofluorescence staining as described herein.

[6] = tested on: angiotensinogen mRNA; settings: cited from earlier work

In the case of `COc1cccc(-c2cc(=O)c3ccccc3o2)c1N` [PD98059], the “concentration at which selectivity is maintained” value [1] is listed as no more than 50 µM, the “effect on CT-1 induced protein synthesis (3H-leucine uptake)” value (shortened to “effect on CT-1 induced protein synthesis”) [2] is listed as “suppressed” and the “effect on CT-1 induced phosphorylation of Akt, mTOR, p70 S6 kinase, 4EB-P1 and S6 ribosomal protein” value [3] is listed as “lesser effect”. For the same compound, the “effect on basal and CT-1 induced phosphorylation of ERK 1/2, Mnk1, and eIF4E” value [3] was “greatest inhibitory effect”.
For `O=S(=O)(c1cccc2c(I)cccc12)N1CCCNCC1` [ML-7], the “effect on CT-1 induced myosin light chain phosphorylation” value [4] was “prevented”.
With `CC(C)(C)n1nc(-c2ccc(Cl)cc2)c2c(N)ncnc21` [PP2] the “effect on CT-1 induced myosin light chain phosphorylation” value [4] was “not”.
For `N#C/C(=C\c1ccc(O)c(O)c1)C(=O)NCc1ccccc1` [AG490, Tyrphostin B42], the “effect on CT-1 induced protein synthesis” value [2] is listed as “suppressed”, the “effect on CT-1 induced cortactin localization at the leading edge” value [5] is listed as “blunted” and the “angiotensinogen mRNA production in response to CT-1 stimulation” value [6] is listed as “attenuate”. For the same compound, the “effect on CT-1 induced myosin light chain phosphorylation” value [4] was “not”, the “effect on CT-1 induced activation of ERK 1/2, p38 MAPK, mTOR, p70 S6 kinase S421/T424, or S6 ribosomal protein” value [3] was “did not significantly affect” and the “effect on CT-1 induced phosphorylation of Akt at both sites, p70 S6 kinase T389, Mnk1, eIF4E and 4E-BP1” value [3] was “suppressed”.
For `NCCCCCCNS(=O)(=O)c1cccc2c(Cl)cccc12` [W7], the “effect on CT-1 induced myosin light chain phosphorylation” value [4] was “prevented”.
With `C[S+]([O-])c1ccc(-c2nc(-c3ccncc3)c(-c3ccc(F)cc3)[nH]2)cc1` (stereo not drawn) [SB203580] the “effect on CT-1 induced protein synthesis” value [2] was “suppressed” and the “effect on CT-1 induced phosphorylation of Akt, p70 S6 kinase and Mnk1” value [3] was “suppressed”.
